Legend:
Assay in all cases: relative viability (nuclei count vs DMSO), 5 days (fraction); higher = more cells survive
R406 + Vorinostat = compound: COc1cc(Nc2ncc(F)c(Nc3ccc4c(n3)NC(=O)C(C)(C)O4)n2)cc(OC)c1OC [R406] + O=C(CCCCCCC(=O)Nc1ccccc1)NO [Vorinostat] (partner 1 µM)
In short: (§1)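 Values are medians from duplicate plates. Each reflects relative viability, defined as the nuclei count of treated wells over that of vehicle wells. Lung cancer cell lines in 1536-well plates were pin-tool dosed one day after seeding with one drug alone or with a fixed anchor-drug dose plus five library-drug doses (not always all listed) in √10 steps, then fixed, stained and imaged at 4× after 5 days.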

Daporinad + Luminespib = compound: O=C(/C=C/c1cccnc1)NCCCCC1CCN(C(=O)c2ccccc2)CC1 [Daporinad] + CCNC(=O)c1noc(-c2cc(C(C)C)c(O)cc2O)c1-c1ccc(CN2CCOCC2)cc1 [Luminespib] (partner 0.01 µM)
In short: as §1

Daporinad + Tozasertib = compound: O=C(/C=C/c1cccnc1)NCCCCC1CCN(C(=O)c2ccccc2)CC1 [Daporinad] + Cc1cc(Nc2cc(N3CCN(C)CC3)nc(Sc3ccc(NC(=O)C4CC4)cc3)n2)n[nH]1 [Tozasertib] (partner 0.1 µM)
In short: as §1

Daporinad + Olaparib = compound: O=C(/C=C/c1cccnc1)NCCCCC1CCN(C(=O)c2ccccc2)CC1 [Daporinad] + O=C(c1cc(Cc2n[nH]c(=O)c3ccccc23)ccc1F)N1CCN(C(=O)C2CC2)CC1 [Olaparib] (partner 8 µM)
In short: as §1

Row | Cell Line | relative viability (R406 + Vorinostat; first compound 0.08 µM) | relative viability (R406 + Vorinostat; first compound 0.253 µM) | relative viability (R406 + Vorinostat; first compound 0.8 µM) | relative viability (R406 + Vorinostat; first compound 2.53 µM) | relative viability (R406 + Vorinostat; first compound 8 µM) | relative viability (Daporinad + Luminespib; first compound 0.0005 µM) | relative viability (Daporinad + Luminespib; first compound 0.001581 µM) | relative viability (Daporinad + Luminespib; first compound 0.005 µM) | relative viability (Daporinad + Luminespib; first compound 0.01581 µM) | relative viability (Daporinad + Tozasertib; first compound 0.0005 µM) | relative viability (Daporinad + Tozasertib; first compound 0.001581 µM) | relative viability (Daporinad + Tozasertib; first compound 0.005 µM) | relative viability (Daporinad + Tozasertib; first compound 0.01581 µM) | relative viability (Daporinad + Olaparib; first compound 0.0005 µM) | relative viability (Daporinad + Olaparib; first compound 0.001581 µM) | relative viability (Daporinad + Olaparib; first compound 0.005 µM) | relative viability (Daporinad + Olaparib; first compound 0.01581 µM)
1 | NCI-H522 | 0.937 | 1.04 | 1.01 | 0.838 | 0.812 | 1.28 | 1.13 | 0.971 | 0.846 | 0.599 | 0.533 | 0.484 | 0.433 | 0.659 | 0.621 | 0.573 | 0.49
2 | HCC-15 | 0.919 | 0.921 | 0.867 | 0.842 | 0.81 | 0.309 | 0.446 | 0.372 | 0.329 | 0.476 | 0.366 | 0.749 | 0.484 | 0.67 | 0.642 | 0.467 | 0.35
3 | A-427 | 0.856 | 0.928 | 0.852 | 0.939 | 0.621 | 0.959 | 0.953 | 0.742 | 0.671 | 0.207 | 0.22 | 0.198 | 0.153 | 0.665 | 0.713 | 0.622 | 0.571
4 | NCI-H2228 | 0.693 | 0.64 | 0.786 | 0.281 | 0.175 | 0.17 | 0.173 | 0.221 | 0.163 | 0.264 | 0.201 | 0.322 | 0.294 | 0.459 | 0.715 | 0.708 | 0.584
5 | NCI-H1734 | 0.747 | 0.918 | 0.909 | 0.366 | 0.309 | 0.233 | 0.187 | 0.185 | 0.228 | 0.283 | 0.262 | 0.285 | 0.263 | 0.567 | 0.443 | 0.327 | 0.241
6 | NCI-H441 | 0.669 | 0.754 | 0.76 | 0.905 | 0.699 | 0.36 | 0.324 | 0.367 | 0.343 | 0.512 | 0.646 | 0.718 | 0.668 | 0.488 | 0.554 | 0.344 | 0.237
7 | PC-3 [JPC-3] | 0.811 | 1.01 | 0.861 | 0.546 | 0.381 | 0.68 | 0.677 | 0.73 | 0.735 | 0.864 | 0.896 | 0.938 | 0.952 | 1.18 | 1.08 | 1 | 1.09
8 | NCI-H1915 | 0.506 | 0.631 | 0.546 | 0.403 | 0.369 | 0.893 | 0.703 | 0.786 | 0.824 | 0.476 | 0.401 | 0.485 | 0.494 | 0.265 | 0.247 | 0.193 | 0.184
9 | NCI-H1666 | 1.02 | 1.09 | 1.05 | 1.1 | 1.03 | 1.01 | 0.985 | 1.07 | 1.03 | 0.619 | 0.635 | 0.655 | 0.701 | 0.754 | 0.644 | 0.669 | 0.679
10 | HCC-366 | 0.264 | 0.482 | 0.332 | 0.137 | 0.077 |  |  |  |  | 0.103 | 0.0734 | 0.124 | 0.171 | 0.334 |  | 0.189 | 0.095
11 | NCI-H2170 | 0.799 | 0.791 | 0.987 | 0.571 | 0.658 | 0.817 | 0.722 | 0.417 | 0.734 | 0.694 | 0.742 | 0.668 | 0.849 | 0.56 | 0.57 | 0.609 | 0.337
12 | NCI-H727 | 1.01 | 1.26 | 1.22 | 1.24 | 1.18 | 0.257 | 0.27 | 0.37 | 0.195 | 0.737 | 0.608 | 0.555 | 0.62 | 0.571 | 0.682 | 0.623 | 0.539
13 | RERF-LC-KJ | 0.669 | 0.811 | 0.732 | 0.583 | 0.552 | 1.22 | 1.4 | 1.18 | 1.07 | 0.559 | 0.45 | 0.562 | 0.517 | 0.867 | 0.896 | 0.82 | 0.757
14 | NCI-H2342 | 0.694 | 0.84 | 0.699 | 0.752 | 0.74 | 0.668 | 0.786 | 0.707 | 0.631 | 0.53 | 0.524 | 0.51 | 0.445 | 0.409 | 0.456 | 0.427 | 0.367
15 | Calu-6 |  |  |  |  |  |  |  |  |  |  |  |  |  | 0.495 | 0.433 | 0.391 | 0.268
16 | LC-2-ad | 0.677 | 0.748 | 0.744 | 0.336 | 0.201 | 0.99 | 1.11 | 1.19 | 0.795 | 0.516 | 0.544 | 0.459 | 0.427 | 0.664 | 0.662 | 0.441 | 0.398

— the supplement of paper PMC10307832
